Assay results: patent US20200131669A1, “CYCLIC PEPTIDE COMPOUND HAVING HIGH MEMBRANE PERMEABILITY, AND LIBRARY CONTAINING SAME” (Chugai Seiyaku Kabushiki Kaisha, priority 2017, published 2020)
Starred links: 1 amine or outer side, 2 acyl side, 3 side chain; linkers in the order of their positions; H or OH if unused. Positions of bridges follow the written chain, without caps; N, C: chain ends. Non-standard residues stand in square brackets, D forms with d. Residues, ends and D or L forms follow the SMILES beside them. *: point of attachment. Glu(NHSO2Me) = CS(=O)(=O)NC(=O)CC[C@H](N)C(=O)O; NMeW = CN[C@@H](Cc1c[nH]c2ccccc12)C(=O)O; NMeF = CN[C@@H](Cc1ccccc1)C(=O)O; NMeGABA = CN(CCCC(=O)[*:2])[*:1]; NMeI = CC[C@H](C)[C@H](NC)C(=O)O; NMeL = CN[C@@H](CC(C)C)C(=O)O; NMeV = CN[C@H](C(=O)O)C(C)C; NMeAbu = CC[C@H](NC)C(=O)O; NMeA = CN[C@@H](C)C(=O)O; Piperidide = C1CCN(*)CC1; NBuGly = CCCCNCC(=O)O; Sar = CNCC(=O)O; tBu = CC(C)(C)*

experiment: Caco-2 membrane permeability, improved method as used in the following Examples (96-well, 20 to 24 h preincubation); assay type: in vitro ADME; details: human, Caco-2, Caco-2
Protocol: In the following Examples, membrane permeability was measured in accordance with the improved method established as described above. Specifically, Caco-2 cells were cultured on a 96-well Transwell for three weeks, after which DMEM+FaSSIF (1% DMSO)+compound were added to the apical side and DMEM was added to the basal side, and the cells were preincubated at 5% CO2, 37° C., and 80 rpm for 20 to 24 hours. Following the preincubation, measurement of membrane permeability was initiated by removing the preincubation solution on the apical and basal sides by suction, washing the membrane, and adding FaSSIF/HBSS buffer (1% DMSO) (pH 6.0) containing the compound to the apical side and HBSS buffer (4% BSA) (pH 7.4) to the basal side. Each well was shaken at 5% CO2, 37° C., and 80 rpm, and 180 minutes after the initiation, the sample on the basal side was collected and the permeation amount was measured by LC/MS. The membrane permeability coefficient (Papp) was calculated from the permeation amount. Herein, the terms “Caco-2 (cm/sec)” in the columns in the tables and “Papp (cm/sec)” are used in the same meaning.

SMILES | Papp A→B at 180 min
CCCCN1CC(=O)N(C)[C@@H](CC(C)C)C(=O)N[C@@H](COC(C)(C)C)C(=O)N(C)[C@@H](Cc2ccccc2)C(=O)N(C)[C@@H](C(C)C)C(=O)N[C@H](C(=O)N2CCCCC2)CC(=O)N[C@H](C(C)C)C(=O)N(C)[C@@H](Cc2ccccc2)C(=O)N[C@@H](CCC(=O)NS(C)(=O)=O)C(=O)N(C)[C@@H](CC(C)C)C(=O)N[C@@H](CC(C)C)C1=O [pd67] ([dV][NMeF][Glu(NHSO2Me)][NMeL]L[NBuGly][NMeL]S(tBu)[NMeF][NMeV]D-Piperidide; lactam N-11) | 0.06 ×10⁻⁶ cm/s
CC(C)C[C@@H]1NC(=O)[C@H](CC(C)C)N(C)C(=O)CCCN(C)C(=O)C[C@@H](C(=O)N2CCCCC2)NC(=O)[C@H](CC(C)C)N(C)C(=O)[C@H](CC(C)C)N(C)C(=O)[C@H](CC(C)C)NC(=O)[C@H](CC(C)C)N(C)C(=O)[C@H](CCC(=O)NS(C)(=O)=O)NC(=O)[C@H](Cc2ccccc2)N(C)C(=O)[C@H](Cc2ccccc2)N(C)C1=O [pd68] ([NMeGABA][NMeL]L[NMeF][NMeF][Glu(NHSO2Me)][NMeL]L[NMeL][NMeL]D-Piperidide; lactam N-11) | 0.1 ×10⁻⁶ cm/s
CCCCN1CC(=O)N(C)[C@@H](C(C)C)C(=O)N[C@H](C(=O)N2CCCCC2)CC(=O)N(C)[C@@H](CC)C(=O)N[C@@H](CC(C)C)C(=O)N(C)[C@@H](CC(C)C)C(=O)N(C)[C@@H](Cc2ccccc2)C(=O)N[C@@H](CCC(=O)NS(C)(=O)=O)C(=O)N(C)[C@@H](Cc2ccccc2)C(=O)N(C)[C@@H](CC(C)C)C(=O)N[C@@H](CC(C)C)C1=O [pd69] ([NMeAbu]L[NMeL][NMeF][Glu(NHSO2Me)][NMeF][NMeL]L[NBuGly][NMeV]D-Piperidide; lactam N-11) | < 0.14 ×10⁻⁶ cm/s
CCCCN1CC(=O)N(C)[C@@H](Cc2ccccc2)C(=O)N[C@@H](CCC(=O)NS(C)(=O)=O)C(=O)N(C)[C@@H](CC(C)C)C(=O)N[C@@H](CC(C)C)C(=O)N(C)CC(=O)N(C)[C@@H](Cc2ccccc2)C(=O)N(C)[C@@H](CC(C)C)C(=O)N[C@@H](CC(C)C)C(=O)N(C)[C@@H](CC(C)C)C(=O)N[C@H](C(=O)N2CCCCC2)CC1=O [pd70] ([NBuGly][NMeF][Glu(NHSO2Me)][NMeL]L[Sar][NMeF][NMeL]L[NMeL]D-Piperidide; lactam N-11) | 0.17 ×10⁻⁶ cm/s

same assay, conditions: human, Caco-2, Caco-2 (cm/sec)

SMILES | Papp A→B at 180 min
CC(C)C[C@@H]1NC(=O)[C@H](CC(C)C)N(C)C(=O)[C@H](C)N(C)C(=O)[C@@H](C(C)C)NC(=O)C[C@@H](C(=O)N2CCCCC2)NC(=O)[C@H]([C@@H](C)O)NC(=O)[C@H](C)N(C)C(=O)CN(C)C(=O)[C@H](CC(C)C)N(C)C(=O)[C@H](Cc2c[nH]c3ccccc23)NC(=O)[C@H](Cc2ccccc2)N(C)C1=O [pd100] ([dV][NMeA][NMeL]L[NMeF]W[NMeL][Sar][NMeA]TD-Piperidide; lactam N-11) | 0.11 ×10⁻⁶ cm/s
CC[C@H](C)[C@H]1C(=O)N[C@@H](Cc2c[nH]c3ccccc23)C(=O)N(C)CC(=O)N(C)[C@@H](C)C(=O)N[C@H](C(=O)N2CCCCC2)CC(=O)N(C)[C@@H](C)C(=O)N[C@@H](CC(C)C)C(=O)N(C)[C@@H](CC(C)C)C(=O)N(C)[C@@H](CC(C)C)C(=O)N[C@@H](C)C(=O)N(C)[C@@H](CC(C)C)C(=O)N1C [pd101] ([NMeA]L[NMeL][NMeL]A[NMeL][NMeI]W[Sar][NMeA]D-Piperidide; lactam N-11) | 0.13 ×10⁻⁶ cm/s
CC[C@H](C)[C@H]1C(=O)N[C@@H]([C@@H](C)O)C(=O)N(C)CC(=O)N(C)[C@@H](CC(C)C)C(=O)N[C@H](C(=O)N2CCCCC2)CC(=O)N(C)[C@@H](C)C(=O)N[C@@H](CC(C)C)C(=O)N(C)[C@@H](CC(C)C)C(=O)N(C)[C@@H](Cc2c[nH]c3ccccc23)C(=O)N[C@@H](C(C)C)C(=O)N(C)[C@@H](CC(C)C)C(=O)N1C [pd102] ([NMeA]L[NMeL][NMeW]V[NMeL][NMeI]T[Sar][NMeL]D-Piperidide; lactam N-11) | 1.1 ×10⁻⁶ cm/s
CC[C@H](C)[C@@H]1NC(=O)[C@H](CC(C)C)N(C)C(=O)CN(C)C(=O)C[C@@H](C(=O)N2CCCCC2)NC(=O)[C@H](C)N(C)C(=O)[C@H](COC(C)(C)C)NC(=O)[C@H](CC(C)C)N(C)C(=O)[C@H](CC(C)C)N(C)C(=O)CN(C)C(=O)[C@H](Cc2c[nH]c3ccccc23)NC(=O)[C@H](CC(C)C)N(C)C1=O [pd103] ([Sar][NMeL]I[NMeL]W[Sar][NMeL][NMeL]S(tBu)[NMeA]D-Piperidide; lactam N-11) | 0.093 ×10⁻⁶ cm/s
CC(C)C[C@H]1C(=O)N(C)[C@@H](Cc2c[nH]c3ccccc23)C(=O)N(C)[C@@H](Cc2ccccc2)C(=O)N[C@@H]([C@@H](C)O)C(=O)N(C)[C@@H](C)C(=O)N(C)[C@@H](CC(C)C)C(=O)N[C@H](C(=O)N2CCCCC2)CC(=O)N(C)[C@@H](C)C(=O)N(C)[C@@H](CC(C)C)C(=O)N(C)[C@@H](CC(C)C)C(=O)N[C@@H](C)C(=O)N1C [pd104] ([NMeA][NMeL][NMeL]A[NMeL][NMeW][NMeF]T[NMeA][NMeL]D-Piperidide; lactam N-11) | 0.025 ×10⁻⁶ cm/s
CC(C)C[C@H]1C(=O)N(C)[C@@H](CC(C)C)C(=O)N(C)[C@@H](Cc2c[nH]c3ccccc23)C(=O)N[C@@H]([C@@H](C)O)C(=O)N(C)[C@@H](C)C(=O)N(C)[C@@H](CC(C)C)C(=O)N[C@H](C(=O)N2CCCCC2)CC(=O)N(C)[C@@H](C)C(=O)N(C)[C@@H](CC(C)C)C(=O)N(C)[C@@H](CC(C)C)C(=O)N[C@@H](C)C(=O)N1C [pd105] ([NMeA][NMeL][NMeL]A[NMeL][NMeL][NMeW]T[NMeA][NMeL]D-Piperidide; lactam N-11) | 0.28 ×10⁻⁶ cm/s
CC(C)C[C@@H]1NC(=O)[C@H](Cc2c[nH]c3ccccc23)N(C)C(=O)[C@@H](C(C)C)NC(=O)C[C@@H](C(=O)N2CCCCC2)NC(=O)[C@H](CC(C)C)N(C)C(=O)[C@H](CC(C)C)N(C)C(=O)[C@H](COC(C)(C)C)NC(=O)[C@H](CC(C)C)N(C)C(=O)CN(C)C(=O)[C@H]([C@@H](C)O)NC(=O)[C@H](CC(C)C)N(C)C1=O [pd106] ([dV][NMeW]L[NMeL]T[Sar][NMeL]S(tBu)[NMeL][NMeL]D-Piperidide; lactam N-11) | 0.36 ×10⁻⁶ cm/s
CC[C@H](C)[C@@H]1NC(=O)[C@H](CC(C)C)N(C)C(=O)CCCN(C)C(=O)C[C@@H](C(=O)N2CCCCC2)NC(=O)[C@H](CC(C)C)N(C)C(=O)[C@H](CC(C)C)N(C)C(=O)[C@H]([C@@H](C)O)NC(=O)[C@H](CC(C)C)N(C)C(=O)[C@H](COC(C)(C)C)NC(=O)[C@H](Cc2c[nH]c3ccccc23)N(C)C(=O)[C@H](Cc2ccccc2)N(C)C1=O [pd107] ([NMeGABA][NMeL]I[NMeF][NMeW]S(tBu)[NMeL]T[NMeL][NMeL]D-Piperidide; lactam N-11) | 0.17 ×10⁻⁶ cm/s
CC[C@H](C)[C@@H]1NC(=O)[C@H](CC(C)C)N(C)C(=O)[C@@H](C)NC(=O)C[C@@H](C(=O)N2CCCCC2)NC(=O)[C@H](C(C)C)N(C)C(=O)[C@H](CC(C)C)N(C)C(=O)[C@H](COC(C)(C)C)NC(=O)[C@H](CC(C)C)N(C)C(=O)CN(C)C(=O)[C@H](Cc2c[nH]c3ccccc23)NC(=O)[C@H](CC(C)C)N(C)C1=O [pd108] ([dA][NMeL]I[NMeL]W[Sar][NMeL]S(tBu)[NMeL][NMeV]D-Piperidide; lactam N-11) | 0.87 ×10⁻⁶ cm/s
CC(C)C[C@H]1C(=O)N(C)[C@@H](Cc2c[nH]c3ccccc23)C(=O)N(C)[C@@H](Cc2ccccc2)C(=O)N[C@@H]([C@@H](C)O)C(=O)N(C)[C@@H](C)C(=O)N(C)[C@@H](CC(C)C)C(=O)N[C@H](C(=O)N2CCCCC2)CC(=O)N(C)[C@@H](C)C(=O)N(C)[C@@H](CC(C)C)C(=O)N(C)[C@@H](CC(C)C)C(=O)N[C@@H](C(C)C)C(=O)N1C [pd109] ([NMeA][NMeL][NMeL]V[NMeL][NMeW][NMeF]T[NMeA][NMeL]D-Piperidide; lactam N-11) | 0.0092 ×10⁻⁶ cm/s
CC[C@H](C)[C@@H]1NC(=O)[C@H](CC(C)C)N(C)C(=O)CCCN(C)C(=O)C[C@@H](C(=O)N2CCCCC2)NC(=O)[C@H](CC(C)C)N(C)C(=O)[C@H](C)N(C)C(=O)[C@H](Cc2c[nH]c3ccccc23)NC(=O)[C@H](CC(C)C)N(C)C(=O)[C@H](COC(C)(C)C)NC(=O)[C@H](CC(C)C)N(C)C(=O)[C@H](CC(C)C)N(C)C1=O [pd110] ([NMeGABA][NMeL]I[NMeL][NMeL]S(tBu)[NMeL]W[NMeA][NMeL]D-Piperidide; lactam N-11) | 0.29 ×10⁻⁶ cm/s
CC[C@H](C)[C@H]1C(=O)N[C@@H]([C@@H](C)O)C(=O)N(C)CC(=O)N(C)[C@@H](CC(C)C)C(=O)N[C@H](C(=O)N2CCCCC2)CC(=O)N(C)[C@@H](CC(C)C)C(=O)N[C@@H](CC(C)C)C(=O)N(C)[C@@H](CC(C)C)C(=O)N(C)[C@@H](Cc2c[nH]c3ccccc23)C(=O)N[C@@H](CC(C)C)C(=O)N(C)[C@@H](Cc2ccccc2)C(=O)N1C [pd111] ([NMeL]L[NMeL][NMeW]L[NMeF][NMeI]T[Sar][NMeL]D-Piperidide; lactam N-11) | 0.16 ×10⁻⁶ cm/s
CC[C@H](C)[C@@H]1NC(=O)[C@H](Cc2ccccc2)N(C)C(=O)[C@@H](C)NC(=O)C[C@@H](C(=O)N2CCCCC2)NC(=O)[C@H](CC(C)C)N(C)C(=O)[C@H](C)N(C)C(=O)[C@H](COC(C)(C)C)NC(=O)[C@H](C)N(C)C(=O)CN(C)C(=O)[C@H](Cc2ccc(O)cc2)NC(=O)[C@H](CC(C)C)N(C)C1=O [pd112] ([dA][NMeF]I[NMeL]Y[Sar][NMeA]S(tBu)[NMeA][NMeL]D-Piperidide; lactam N-11) | 0.11 ×10⁻⁶ cm/s
